The values below come from ChEMBL document CHEMBL3507680, “University of Dundee, Gates Library screen for HepG2 cell viability”.

The nature of this data set: Human HepG2 cell viability assay in 384 well format. The data set is classed as toxicity, cell-based. On the set-up: dose 125 nL, time 70.5 hour; cytotoxicity at 70.5 h: concentration not given beside the values. Particulars: HepG2 cells, read-out: Inhibition.
With `CCS(=O)(=O)N1CCc2ccc(NC(=O)NCCc3ccccc3)cc21`, the cytotoxicity at 70.5 h was -6.1%.

On to `COCC(Nc1ncnc2sc(C)c(C)c12)c1ccnn1C` (centres undefined), for which the cytotoxicity at 70.5 h is -4.15%.

Consider `CC(=O)c1cc2c(=O)[nH]c(=O)n(C)c2nc1C`, for which the cytotoxicity at 70.5 h was -9.65%.

For the compound `Cc1cc(-c2ccc(C(=O)O)cc2)nc(C2CCN(C(C)C)CC2)n1`, the cytotoxicity at 70.5 h was found to be 0.538%.

In the case of `Cc1cccc(C)c1OC1CN(Cc2cnc(-c3ccco3)nc2)C1`, the cytotoxicity at 70.5 h was -6.4%.

As for `Cc1ccc(OCCn2cnc3oc(C)c(C(=O)O)c3c2=O)cc1`, the cytotoxicity at 70.5 h turned out to be 19.9%.

Consider `c1cnc(CC2CCN(c3cnccn3)CC2)cn1`, for which the cytotoxicity at 70.5 h was -7.05%.

`Cc1cccnc1CNc1ccc(C(=O)N2CCc3ccccc32)cn1`: the cytotoxicity at 70.5 h stood at 0.0725%.

Consider `CN(C)c1cccc(C2CCCN2c2nc3c(cnn3C)c(=O)[nH]2)c1` (centres undefined), for which the cytotoxicity at 70.5 h stood at 15.4%.

Regarding `Cc1ccc(NC2CCN(C(=O)CCCn3ccnc3C)CC2)nn1`, the cytotoxicity at 70.5 h was -7.72%.

Consider `COc1cc(Cl)c(NC(=O)NCCn2cccc2)cc1OC`, for which the cytotoxicity at 70.5 h is -4.58%.

For the compound `CCC(C(=O)Nc1ccc2c(C)n[nH]c2c1)N1CCCC1=O` (centres undefined), the cytotoxicity at 70.5 h is 21.5%.

In the case of `O=C(NCCCn1ccnc1)N1CCCC1c1cccs1` (centres undefined), the cytotoxicity at 70.5 h is -2.86%.

With `COCCN(CCc1ccccc1)Cc1nc2c(cnn2C)c(=O)[nH]1`, the cytotoxicity at 70.5 h was -3.4%.

For the compound `CCc1cc(NCCCNS(C)(=O)=O)nc(-c2ccncc2)n1`, the cytotoxicity at 70.5 h was -9.08%.

For the compound `Cc1cc(C(C)NC(=O)CCN2C(=O)c3ccccc3C2=O)c(C)o1` (centres undefined), the cytotoxicity at 70.5 h was 28.1%.

As to `CO[C@H]1CN(CC2CC2)[C@@H]2CCCO[C@H]12`, the cytotoxicity at 70.5 h was -9.81%.

`COC(=O)c1cc(NC(=O)CCc2cscn2)ccc1C`: the cytotoxicity at 70.5 h is -5.71%.

Regarding `CC(C)NC(=O)N1CCCC2(CCCCN2)C1` (centres undefined), the cytotoxicity at 70.5 h was -7.7%.

Turning to `C[C@@H]1CN(c2nc(N)nc3c2CCC3)CC[C@@]1(O)C1CCC1`, the cytotoxicity at 70.5 h worked out at 4.77%.

Turning to `CCOCC1COCCC12CCN(C(=O)CC1=CCCCC1)CC2` (centres undefined), the cytotoxicity at 70.5 h is -5.12%.

Consider `O=C(C1CCC1)N1CCN(Cc2cccnc2)[C@H]2CS(=O)(=O)C[C@H]21`, for which the cytotoxicity at 70.5 h was -2.54%.

Turning to `Cc1noc(C)c1C(=O)N1CCCN(Cc2cscn2)CC1`, the cytotoxicity at 70.5 h was -2.11%.

Regarding `CCc1nc(N)nc(NCc2cnn3cccnc23)c1C`, the cytotoxicity at 70.5 h is -0.745%.

Turning to `COc1ccc(CN2C[C@@H](N(C)Cc3ccco3)[C@H]3OCCC[C@H]32)cc1`, the cytotoxicity at 70.5 h is -8.22%.

Turning to `CC(=O)NCCNc1nccc(CCC(F)(F)F)n1`, the cytotoxicity at 70.5 h is -10.3%.

Take `COCCOc1ccnc(-c2noc([C@@H]3CCCN3CC(C)C)n2)c1`: the cytotoxicity at 70.5 h was -5.97%.

As for `COC(=O)C1CN(CC(=O)Nc2cc(F)ccc2F)c2ccccc21` (centres undefined), the cytotoxicity at 70.5 h was -7.21%.

As to `c1cnnc(NCC2CN(CCn3cccn3)CCO2)c1` (centres undefined), the cytotoxicity at 70.5 h was -2.81%.

On to `Cc1csc(NC(=O)[C@@H]2C[C@H]3[C@H](CCN3c3ncccn3)O2)n1`, for which the cytotoxicity at 70.5 h worked out at 18.3%.

For the compound `COCC(=O)N1CCN(C(=O)c2scnc2C)CC1`, the cytotoxicity at 70.5 h is -11.5%.

In the case of `CC(C)NC(=O)c1cc(Br)cc(S(=O)(=O)N2CCOCC2)c1F`, the cytotoxicity at 70.5 h is -0.805%.

As to `Cc1nnc(C(C)Nc2cccc(COCCc3ccccc3)c2)o1` (centres undefined), the cytotoxicity at 70.5 h was -8.73%.

As for `CC(C)(C)c1nccc(N2CCC(OCCN3CCCCC3)C2)n1` (centres undefined), the cytotoxicity at 70.5 h was -6.69%.

Turning to `COc1ccc(NCCC(=O)NCc2cccnc2N(C)C)cc1`, the cytotoxicity at 70.5 h is -8.23%.

Regarding `CN1CCCCc2c1nc1c(c2N)CCCC1`, the cytotoxicity at 70.5 h was -5.71%.

Consider `Cc1nn(C)c(N(C)C)c1CNCc1ccnn1C`, for which the cytotoxicity at 70.5 h is -5.03%.

For the compound `O=C(Nc1ccc(-c2csnn2)cc1)N1CCC(N2CCCC2)C1` (centres undefined), the cytotoxicity at 70.5 h is -14.2%.

In the case of `Cc1cc(F)ccc1S(=O)(=O)NCC(O)c1cccn1C` (centres undefined), the cytotoxicity at 70.5 h was 0.803%.

For `O=C(O)[C@@H]1CN(C(=O)CCCc2ccc(F)cc2)C[C@H]1C1CC1`, the cytotoxicity at 70.5 h was -5.36%.

For the compound `c1ccc2c3c([nH]c2c1)C(c1nn[nH]n1)CCC3` (centres undefined), the cytotoxicity at 70.5 h was -10.7%.

Regarding `Cc1nc(C)n(CC2CCCN2Cc2nc3ccccc3o2)n1` (centres undefined), the cytotoxicity at 70.5 h is -5.98%.

On to `CCC(C)NC(=O)c1ccc(NC(=O)CCc2ccncc2)c(C)c1` (centres undefined), for which the cytotoxicity at 70.5 h was -3.96%.

On to `c1ccc(CO[C@@H]2CO[C@@]3(CCN(Cc4ccccn4)C3)C2)nc1`, for which the cytotoxicity at 70.5 h was -16%.

Take `O=S(=O)(N1CCOCC1)N1CCOC(CCc2ccccc2)C1` (centres undefined): the cytotoxicity at 70.5 h is -4.48%.

Regarding `O=C(Nc1nc2c(s1)CN(S(=O)(=O)C1CC1)CC2)c1cccc(Cl)c1`, the cytotoxicity at 70.5 h came out at 8.23%.

With `CC(=O)NC1CCCN(C(=O)NCc2ccc(-c3ccn[nH]3)cc2)C1` (centres undefined), the cytotoxicity at 70.5 h amounted to 3.22%.

In the case of `Cc1nc(CN2CCN(C(=O)c3ccc(=O)n(C)c3)CC2)cs1`, the cytotoxicity at 70.5 h was -2.46%.

For the compound `O=c1c(NCCNCCO)c(N2CCN(c3ccccc3)CC2)c1=O`, the cytotoxicity at 70.5 h is -6.86%.

In the case of `CCc1cc(N2CCC(NC3CCOCC3)CC2)nc(N(C)C)n1`, the cytotoxicity at 70.5 h was 25.7%.

For the compound `CCOC(=O)C1(O)CCN(C(=O)Nc2ccc(CC)cc2)CC1`, the cytotoxicity at 70.5 h was -4.17%.

For the compound `CCc1cnc(N2CCC(=O)N(CC3CC3)C(C(C)C)C2)nc1` (centres undefined), the cytotoxicity at 70.5 h stood at 8.36%.

Regarding `COCc1cncc2c1CCN(C(=O)c1ccc(C)o1)C2`, the cytotoxicity at 70.5 h was determined as 4.32%.

With `Cc1ccccc1OCC1CCCN(C(=O)CNC(=O)N(C)C)C1` (centres undefined), the cytotoxicity at 70.5 h was 16.8%.

`CN(CCc1ccccn1)C(=O)CCC1CCCN(c2cnccn2)C1` (centres undefined): the cytotoxicity at 70.5 h was 2.36%.

As for `Cc1c(CCC(=O)N2CCCC2c2ccnc(N(C)C)c2)cnn1C` (centres undefined), the cytotoxicity at 70.5 h is -1.8%.

In the case of `CN(C)Cc1cnc(C2CCN(C(=O)c3cccc(F)c3)C2)[nH]1` (centres undefined), the cytotoxicity at 70.5 h came to 20.2%.

With `N#Cc1cccc(SCCS(N)(=O)=O)c1`, the cytotoxicity at 70.5 h was -6.9%.

Consider `O=C(c1cccc(O)c1)N1CCC2(CCN2c2ncccn2)C1` (centres undefined), for which the cytotoxicity at 70.5 h was 2.82%.

`CN1CCOC(C(=O)Nc2ccc3[nH]nnc3c2)C1` (centres undefined): the cytotoxicity at 70.5 h was -3.75%.

Regarding `Cc1nn(C)c2cn(C(C)C(=O)NCc3cccc(F)c3)nc12` (centres undefined), the cytotoxicity at 70.5 h is -3%.

For the compound `COC(=O)C(C)(C)C(C)(C)NC(=O)Nc1nnc(-c2ccccn2)s1`, the cytotoxicity at 70.5 h was -10.6%.

For the compound `CCc1[nH]nc(NC(=O)c2ccc(Cl)cn2)c1C`, the cytotoxicity at 70.5 h is 7.84%.

As to `Cn1ccnc1SCC(=O)NCCC1CCCO1` (centres undefined), the cytotoxicity at 70.5 h amounted to 31.2%.

Take `CCN(CC)CCn1c(NC(=O)c2scnc2C)nc2ccccc21`: the cytotoxicity at 70.5 h was 5.56%.

With `O=C(c1cscn1)N1C[C@@H]2C[C@@H](c3nnc(C4CC4)o3)O[C@@H]2C1`, the cytotoxicity at 70.5 h was -8.28%.

As to `Cc1ncsc1CN1CC[C@H]2C[C@H](c3ccncn3)O[C@@H]2C1`, the cytotoxicity at 70.5 h was -12.4%.

In the case of `Fc1cccc(CNCC2OCCc3cn(CC4CCOCC4)nc32)c1` (centres undefined), the cytotoxicity at 70.5 h was -5.44%.

Turning to `Cn1cc2ncn(CCCOc3cccnc3)c(=O)c2n1`, the cytotoxicity at 70.5 h worked out at 22.8%.

In the case of `CN1CC(=O)N(c2ccsc2)CC12CCN(S(=O)(=O)c1ccccc1)C2` (centres undefined), the cytotoxicity at 70.5 h is -109%.

In the case of `CC1N(CC2CC2)C(=O)COC12CCN(C(=O)c1cscn1)CC2` (centres undefined), the cytotoxicity at 70.5 h was -5.04%.

On to `COCCN1CC2(CCN(C(=O)c3ccno3)CC2)c2ccccc21`, for which the cytotoxicity at 70.5 h amounted to 27.9%.

With `NC(=O)c1ccc(NC2CCOC3(CCCC3)C2)nn1` (centres undefined), the cytotoxicity at 70.5 h worked out at 17.2%.

Regarding `Cc1cccc(C2CCCN(S(=O)(=O)c3cccnc3)C2)n1` (centres undefined), the cytotoxicity at 70.5 h was -2.36%.

`Cc1cc(CN2CCN(C(=O)NCCc3csc(C)n3)CC2)on1`: the cytotoxicity at 70.5 h is -11.6%.

Regarding `O=C(Cn1cc(C(=O)O)cn1)Nc1c(Cl)cccc1Cl`, the cytotoxicity at 70.5 h was -5.99%.

`CCc1nnc2n1CCN(C(=O)c1cc(C)n(-c3ccccc3)c1C)C2`: the cytotoxicity at 70.5 h is -4.27%.

In the case of `N#Cc1ccc(SCCC(=O)Nc2ccc(CC(N)=O)cc2)cc1`, the cytotoxicity at 70.5 h is 6.57%.

On to `NC(=O)C(NC(=O)COC1CCCCC1)c1ccccc1` (centres undefined), for which the cytotoxicity at 70.5 h was -4.15%.

Consider `Cc1cc(S(=O)(=O)N(C)CC(N)=O)ccc1Br`, for which the cytotoxicity at 70.5 h was -2.54%.

Take `CCCn1nc(C)c(CNS(=O)(=O)NCc2ccccc2)c1C`: the cytotoxicity at 70.5 h was -12.7%.

Turning to `CC(C)COCCC(=O)Nc1cccnc1-n1cncn1`, the cytotoxicity at 70.5 h was -6.91%.

As for `Cc1nn(C)c2c(=O)n(CC(=O)NCC3CCCO3)ccc12` (centres undefined), the cytotoxicity at 70.5 h was -4.99%.

`CC(C)N(CC(N)=O)Cc1cccc(C(F)(F)F)c1`: the cytotoxicity at 70.5 h was -1.84%.

On to `CN(C)CCNc1cc(-c2ccccc2C(N)=O)c2cc[nH]c2n1`, for which the cytotoxicity at 70.5 h was -8.6%.

As for `CC(=O)N(Cc1noc(C)n1)C1CCN(Cc2ccon2)C1` (centres undefined), the cytotoxicity at 70.5 h worked out at 37.1%.

For the compound `CCCS(=O)(=O)N1CCC2(CCCN(Cc3cccc(F)c3F)C2=O)C1` (centres undefined), the cytotoxicity at 70.5 h is -7.34%.

Consider `CC(C)NC(=O)CS(=O)(=O)Cc1coc(-c2ccc(F)cc2)n1`, for which the cytotoxicity at 70.5 h is -17.8%.

For the compound `CN1CC(=O)N(c2ccccc2)CC12CCN(S(C)(=O)=O)C2` (centres undefined), the cytotoxicity at 70.5 h is 20.4%.

As for `CCCN1CCC(c2nc3ccc(-c4ccccc4)cn3n2)CC1`, the cytotoxicity at 70.5 h is -10.7%.

Consider `NC(=O)C1CCN(C(=O)CCSCc2ccc(Cl)c(Cl)c2)CC1`, for which the cytotoxicity at 70.5 h was -7.23%.

On to `COCC(=O)N1CC[C@]2(O)CCN(C(=O)CCc3ccsc3)C[C@@H]2C1`, for which the cytotoxicity at 70.5 h is -10.1%.

With `Cc1cccc(CNC(=O)CNc2cc(CO)ccc2Cl)c1`, the cytotoxicity at 70.5 h is -3.8%.

For `CCn1c(CN(C)C(C)CSC)nc2c(F)cccc21` (centres undefined), the cytotoxicity at 70.5 h was -3.45%.

In the case of `Cc1oncc1C(=O)N1CCC2(CCN(Cc3ccccn3)C2=O)C1` (centres undefined), the cytotoxicity at 70.5 h is -0.113%.

With `CC(=O)N1CC(=O)N(c2ccccc2)CC12CCN(Cc1cccs1)C2` (centres undefined), the cytotoxicity at 70.5 h was -5.96%.

`O=C(Nc1ccc(F)cc1)C1CCN(Cc2noc(C3CC3)n2)CC1`: the cytotoxicity at 70.5 h was -7.96%.

Consider `CCn1cc(CNc2ccc(F)c(N3CCCS3(=O)=O)c2)cn1`, for which the cytotoxicity at 70.5 h is 0.531%.

With `COCCC(=O)N1CCCC1c1nc(O)cc(-c2ccccn2)n1` (centres undefined), the cytotoxicity at 70.5 h is -5.06%.
